Measured values: PMC12380353, “MK-8527 is a novel inhibitor of HIV-1 reverse transcriptase translocation with potential for extended-duration dosing” (PLOS Biology, 2025)
Where “and” joins values, the source holds several entries; their conditions need not be identical. Identical values can stand only once. Like-named read-outs stand apart in the source and are kept apart here.

Columns and labels:
HIV-1 [1] = details: HIV-1, PBMCs; read-out: PBMC IC50; cited from earlier work
[2] = CellTiter-Glo (CTG) cytotoxicity in MT4-GFP cells; details: human
HIV-1 [3] = assay: microbe, parasite or virus in culture; details: for IC50: Human immunodeficiency virus 1, PBMC
Procedure: IC50 values were determined, and a persistence ratio was calculated for each compound. GFP, green fluorescent protein; hpi, hours post-infection; IC50, half maximal inhibitory concentration.
Assay media in each well were then evacuated and the cells resuspended using the gentle setting on the BlueWasher (BlueCatBio; Lebanon, NH, USA). Centrifugation and wash steps were repeated to ensure removal of extracellular compound.
MT4-GFP cells were infected with WT R8 virus, and PBMCs were infected with pNLG1-P2A-GFP. […] IC50 values were determined by nonlinear 4-parameter curve fitting of the data. A persistence ratio was calculated for each compound by dividing the IC50 from variable B (IC50B) by the IC50 from variable A (IC50A).

HIV-1 [4] = assay: microbe, parasite or virus in culture
HIV RT [5] = biological target: T1, HIV RT (Human immunodeficiency virus type 1 group M subtype B, UniProt P04585); assay: HIV-RT primer extension assay (chain termination); type: biochemical; details: 1 µM each dNTP
T1 construct: HIV RT (final concentration, 1,200 nM)
Procedure: The reaction protocol was adapted from previous work. Primers and template used for this assay are described in Fig 8A.
All reagent stocks were in a base assay buffer consisting of 50 mM Tris pH 7.5 and 50 mM NaCl in nuclease-free water. […] Samples were then heated to 95 °C for 10 min prior to storage at −20 °C until being resolved by polyacrylamide gel electrophoresis with 7 M urea.

HIV RT [6] = biological target: T1, HIV RT; assay: Iron footprinting assay of RT translocation state; type: biochemical; details: 1 µM MK-8527-TP or ISL-TP, 5 µM ddATP; absence or presence of dTTP
Procedure: The translocation state of RT was assessed with a site-specific iron footprinting assay adapted from previous work. Primer and template used for this assay are described in Fig 7A. The presence of Fe^2+ ions in the reaction generated hydroxyl radicals that cleaved the DNA template in a site-specific manner at the nucleotide closest to the RNase H active site. In addition to an RT inhibitor in the reaction, dTTP, the subsequent dNTP, was provided in dose titration to force the translocation of the 3′-primer terminus from the pre-translocation N-site to the post-translocation P-site.
(final concentration, 1 µM), or ddATP (final concentration, 5 µM), Td43/Pd30 pre-annealed primer and template (final concentration, 200 nM based on Cy3-labeled Td43 concentration), and dTTP titrated at various concentrations. All reagent stocks were in a base assay buffer consisting of 120 mM Tris pH 7.5, 20 mM NaCl, and 6 mM MgCl2 in nuclease-free water. […] The reaction was then heated to 37 °C for 5 min before quenching 1:1 with gel-loading dye followed by heating at 95 °C for 10 min. Samples were stored at −20 °C until being resolved by polyacrylamide gel electrophoresis with 7 M urea.

HIV-1 [7] = assay: Single-cycle antiviral assay in PBMCs; type: cell-based; details: HIV-1, single-cycle assay, human PBMCs, 10% NHS; read-out: PBMC IC50
Procedure: To evaluate the ability of inhibitors to prevent HIV-1 infection in primary cells, human PBMCs obtained from Biological Specialty Corporation (Colmar, PA, USA) were used to assess antiviral activity. The proviral variants used for these studies were generated by site-directed mutagenesis in a proviral vector derived from NL43 [52] that encodes GFP (pNLG1-P2A-GFP). Virus was produced by transfection in 293T cells.
PBMCs were activated with phytohemagglutinin (PHA) at 5 μg/mL in Roswell Park Memorial Institute (RPMI) 1640 medium containing 10% heat-inactivated fetal bovine serum (FBS) for 2–3 days. Compound plates were prepared by dispensing compounds dissolved in DMSO into 384-well poly-d-lysine-coated plates (0.2 μL per well) using an Echo acoustic dispenser (Labcyte; San Jose, CA, USA). Each compound was tested in a 10-point serial 3-fold dilution (typical final concentrations: 5,000 to 0.1 nM). Controls included no inhibitor (DMSO only) and a combination of 3 antiviral agents, efavirenz, indinavir, and the integrase strand transfer inhibitor, L-002254051, at final concentrations of 4 μM each. PHA-activated human PBMCs were washed and resuspended in RPMI 1640 containing 10% NHS and 30 units per mL of interleukin-2 (IL-2) at 6 × 10^5 cells per mL. PBMCs were added to the compound plates and cultured for 24 h at 37 °C, 5% CO2, and 90% humidity. The appropriate HIV-1 variant was added to the PBMCs and cultured at 37 °C, 5% CO2, and 90% humidity for an additional 24 h.
HIV-1–infected cells were quantified by counting the number of GFP cells in each well using an Acumen eX3 scanner (SPT Labtech; Melbourn, UK).

HIV-1 [8] = system: HIV-1
MT4-GFP cells = assay: CellTiter-Glo (CTG) cytotoxicity in MT4-GFP cells; details: read-out: MT4-GFP CTG CC50, CellTiter-Glo
HIV-1 [9] = assay: Multicycle antiviral assay in MT4-GFP cells; type: cell-based; details: WT HIV-1, multicycle assay, 10% NHS
Procedure: Compounds were evaluated for their ability to prevent HIV-1 infection in MT4-GFP cells as described in Diamond, and colleagues. HIV-1 replication was monitored using the MT4-gag-GFP clone D3, and MT4 cells with a GFP reporter gene, the expression of which is dependent on the HIV-1 expressed proteins tat and rev. […] Proviral variants used for these studies were generated by site-directed mutagenesis in the WT R8 proviral plasmid. Virus was produced by transfection in 293T cells.
Briefly, MT4-GFP cells were cultured overnight with the appropriate HIV-1 variant at an approximate multiplicity of infection of 0.01. After approximately 19 h of infection, the cells were washed and resuspended in assay media containing 10% normal human serum (NHS) before being added to 384-well compound plates containing 10-point serial 3-fold dilutions of compound. Controls included no inhibitor (dimethyl sulfoxide [DMSO] only) and a combination of 3 antiviral agents, efavirenz, indinavir, and an integrase strand transfer inhibitor, L-002254051, at final concentrations of 4 µM each. The infected or treated cells were cultured at 37 °C, 5% CO2, and 90% humidity until evaluation of infection was conducted at approximately 48 and 72 h post-infection by counting the number of GFP cells in each well using an Acumen eX3 scanner (SPT Labtech; Melbourn, UK). The reproductive ratio, R, was calculated by dividing the number of infected cells at 72 h by the number at 48 h post-infection. The percentage inhibition caused by a test compound was calculated by the following formula:
inhibition = [1−(Rtest compound − Rpositive control)]/(RDMSO only − Rpositive control) × 100%\]
The dose–response curves of each test compound were plotted as percentage inhibition versus the test concentration.

C#C[C@]1(CO)O[C@@H](n2cnc3c(N)nc(F)nc32)C[C@@H]1O [ISL, 4′-ethynyl-2-fluoro-2′-deoxyadenosine, reference compound]
IC50 (HIV-1 [1]): 0.2 nM and 0.23 nM | CC50 [2]: > 42000 nM | IC50 (HIV-1 [3]; 48 h, read-out: Persistence assay IC50B, PBMCs): 39.7 ± 23.9 nM | IC50 (HIV-1 [3]; read-out: Persistence assay IC50A, PBMCs): 0.8 ± 0.48 nM | IC50 (HIV-1 [4]; Human immunodeficiency virus 1, 48 h, read-out: Persistence assay IC50B, MT4-GFP cells): 25.5 ± 9.96 nM | IC50 (HIV-1 [4]; Human immunodeficiency virus 1, read-out: Persistence assay IC50A, MT4-GFP cells): 0.89 ± 0.63 nM

Nc1ncnc2c1ncn2[C@H]1CC[C@@H](CO[P@@](=O)(O)O[P@](=O)(O)OP(=O)(O)O)O1 [ddATP, dideoxyadenosine triphosphate, reference compound]
Chain termination mechanism (ICT/DCT) (HIV RT [5]): only inhibits via ICT | Translocation state of RT (HIV RT [6]): mostly in the post-translocation state

(2R,3S,5R)-5-(4-amino-5-methyl-7H-pyrrolo[2,3-d]pyrimidin-7-yl)-2-ethynyl-2-(hydroxymethyl)tetrahydrofuran-3-ol [Compound 8]
IC50 (HIV-1 [7]): 58.8 nM | Persistence ratio (MT4-GFP) (HIV-1 [8]): 6 | CC50 (MT4-GFP cells): 38800 nM | Persistence ratio (PBMC) (HIV-1 [3]; IC50B/IC50A, PBMCs): 18 | IC50 (HIV-1 [9]): 85.4 nM
